Data taken from article PMC7901654, “Bioisosteric Discovery of NPA101.3, a Second-Generation RET/VEGFR2 Inhibitor Optimized for Single-Agent Polypharmacology” (Journal of Medicinal Chemistry, 2020).

Key:
Experiment in all cases: KinomeScan panel screen
Format in all cases: binding
ACVR1 = target: T1, ACVR1 (Homo sapiens, UniProt Q04771); conditions: ACVR1, 100 nM; read-out: Percent Control
T1 construct: purchased DiscoveRx KINOMEscan (TRKA and CSF1R IC50 enzymes from Invitrogen)
Experimental: (§1) In addition, NPA101.3, at a concentration of 100 nM, was subjected to a kinome scan against a 96-kinase panel representing major kinome clusters (Table S2). The compound featured good selectivity, displaying strong binding activity (>90% bound) for only seven additional kinases [CSF1R (colony stimulating factor 1 receptor), FRK (fyn-related Src family tyrosine kinase), HCK (HCK proto-oncogene, Src family tyrosine kinase), LYN (lyn proto-oncogene, Src family tyrosine kinase), MKNK2 (MAPK-interacting serine/threonine kinase 2), TRKA (neurotrophic receptor tyrosine kinase 1), and TRKC (neurotrophic receptor tyrosine kinase 3)] and weak binding (>10–35% bound) for six other kinases (Table S2 and Figure S2). It is important to note that the measurement of binding affinity, which is based on control ligand displacement (Kd), is more sensitive than the in vitro kinase assay. Among the seven kinases with >90% binding, TRKA and CSF1R were selected for an in vitro kinase assay.
(§2) Supplementary Table S2: NPA101.3 KinomeScan Panel screen.
(§3) NPA101.3 was screened at a single concentration of 100 nM. Hits values lower than
(§4) 10% of control were considered strongly positive.
(§5) DiscoveRx Gene Entrez Gene Percent Compound
(§6) Symbol Symbol Control Concentration

YANK2 = target: T2, YANK2 (Homo sapiens, UniProt Q9NY57); conditions: YANK2, 100 nM; read-out: Percent Control
T2 construct: purchased DiscoverX (outsourced KINOMEscan)
Experimental: as §1, §2, §3, §4, §5, §6

IRAK4 = target: T3, IRAK4 (Homo sapiens, UniProt Q9NWZ3); conditions: IRAK4, 100 nM; read-out: Percent Control
T3 construct: purchased DiscoveRx KINOMEscan (TRKA and CSF1R IC50 enzymes from Invitrogen)
Experimental: as §1, §2, §3, §4, §5, §6

TLK1 = target: T4, TLK1 (Homo sapiens, UniProt Q9UKI8); conditions: TLK1, 100 nM; read-out: Percent Control
T4 construct: purchased DiscoveRx KINOMEscan (TRKA and CSF1R IC50 enzymes from Invitrogen)
Experimental: as §1, §2, §3, §4, §5, §6

LIMK2 = target: T5, LIMK2 (Homo sapiens, UniProt P53671); conditions: LIMK2, 100 nM; read-out: Percent Control
T5 construct: purchased DiscoveRx KINOMEscan (TRKA and CSF1R IC50 enzymes from Invitrogen)
Experimental: as §1, §2, §3, §4, §5, §6

BRSK2 = target: T6, BRSK2 (Homo sapiens, UniProt Q8IWQ3); conditions: BRSK2, 100 nM; read-out: Percent Control
T6 construct: purchased DiscoveRx KINOMEscan (TRKA and CSF1R IC50 enzymes from Invitrogen)
Experimental: as §1, §2, §3, §4, §5, §6

MEK1 = target: T7, MEK1 (Homo sapiens, UniProt Q02750); conditions: MEK1, 100 nM; read-out: Percent Control
T7 construct: purchased DiscoveRx KINOMEscan (TRKA and CSF1R IC50 enzymes from Invitrogen)
Experimental: as §1, §2, §3, §4, §5, §6

BTK = target: T8, BTK (Homo sapiens, UniProt Q06187); conditions: 100 nM, read-out: Percent Control
T8 construct: purchased DiscoveRx KINOMEscan (TRKA and CSF1R IC50 enzymes from Invitrogen)
Experimental: as §1, §2, §3, §4, §5, §6

INSR = target: T9, INSR (Homo sapiens, UniProt P06213); conditions: 100 nM, read-out: Percent Control
T9 construct: purchased DiscoveRx KINOMEscan (TRKA and CSF1R IC50 enzymes from Invitrogen)
Experimental: as §1, §2, §3, §4, §5, §6

MTOR = target: T10, MTOR (Homo sapiens, UniProt P42345); conditions: 100 nM, read-out: Percent Control
T10 construct: purchased DiscoveRx KINOMEscan (TRKA and CSF1R IC50 enzymes from Invitrogen)
Experimental: as §1, §2, §3, §4, §5, §6

TTK = target: T11, TTK (Homo sapiens, UniProt P33981); conditions: 100 nM, read-out: Percent Control
T11 construct: purchased DiscoverX (outsourced KINOMEscan)
Experimental: as §1, §2, §3, §4, §5, §6

MKNK2 = target: T12, MKNK2 (Homo sapiens, UniProt Q9HBH9)
T12 construct: purchased DiscoveRx KINOMEscan (TRKA and CSF1R IC50 enzymes from Invitrogen)
Experimental: as §1, §2, §3, §4, §5, §6

DRAK1 = target: T13, DRAK1 (Homo sapiens, UniProt Q9UEE5); conditions: DRAK1, 100 nM; read-out: Percent Control
T13 construct: purchased DiscoveRx KINOMEscan (TRKA and CSF1R IC50 enzymes from Invitrogen)
Experimental: as §1, §2, §3, §4, §5, §6

TSSK1B = target: T14, TSSK1B (Homo sapiens, UniProt Q9BXA7); conditions: 100 nM, read-out: Percent Control
T14 construct: purchased DiscoverX (outsourced KINOMEscan)
Experimental: as §1, §2, §3, §4, §5, §6

FER = target: T15, FER (Homo sapiens, UniProt P16591); conditions: 100 nM, read-out: Percent Control
T15 construct: purchased DiscoveRx KINOMEscan (TRKA and CSF1R IC50 enzymes from Invitrogen)
Experimental: as §1, §2, §3, §4, §5, §6

PIM1 = target: T16, PIM1 (Homo sapiens, UniProt P11309); conditions: PIM1, 100 nM; read-out: Percent Control
T16 construct: purchased DiscoveRx KINOMEscan (TRKA and CSF1R IC50 enzymes from Invitrogen)
Experimental: as §1, §2, §3, §4, §5, §6

CDK9 = target: T17, CDK9 (Homo sapiens, UniProt P50750); conditions: CDK9, 100 nM; read-out: Percent Control
T17 construct: purchased DiscoveRx KINOMEscan (TRKA and CSF1R IC50 enzymes from Invitrogen)
Experimental: as §1, §2, §3, §4, §5, §6

CHEK2 = target: T18, CHEK2 (Homo sapiens, UniProt O96017); conditions: CHEK2, 100 nM; read-out: Percent Control
T18 construct: purchased DiscoveRx KINOMEscan (TRKA and CSF1R IC50 enzymes from Invitrogen)
Experimental: as §1, §2, §3, §4, §5, §6

BMX = target: T19, BMX (Homo sapiens, UniProt P51813); conditions: 100 nM, read-out: Percent Control
T19 construct: purchased DiscoveRx KINOMEscan (TRKA and CSF1R IC50 enzymes from Invitrogen)
Experimental: as §1, §2, §3, §4, §5, §6

AXL = target: T20, AXL (Homo sapiens, UniProt P30530); conditions: 100 nM, read-out: Percent Control
T20 construct: purchased DiscoveRx KINOMEscan (TRKA and CSF1R IC50 enzymes from Invitrogen)
Experimental: as §1, §2, §3, §4, §5, §6

AURKA = target: T21, AURKA (Homo sapiens, UniProt O14965); conditions: 100 nM, read-out: Percent Control
T21 construct: purchased DiscoveRx KINOMEscan (TRKA and CSF1R IC50 enzymes from Invitrogen)
Experimental: as §1, §2, §3, §4, §5, §6

BUB1 = target: T22, BUB1 (Homo sapiens, UniProt O43683); conditions: BUB1, 100 nM; read-out: Percent Control
T22 construct: purchased DiscoveRx KINOMEscan (TRKA and CSF1R IC50 enzymes from Invitrogen)
Experimental: as §1, §2, §3, §4, §5, §6

EGFR = target: T23, EGFR (Homo sapiens, UniProt P00533); conditions: 100 nM, read-out: Percent Control
T23 construct: purchased DiscoveRx KINOMEscan (TRKA and CSF1R IC50 enzymes from Invitrogen)
Experimental: as §1, §2, §3, §4, §5, §6

ULK2 = target: T24, ULK2 (Homo sapiens, UniProt Q8IYT8); conditions: ULK2, 100 nM; read-out: Percent Control
T24 construct: purchased DiscoverX (outsourced KINOMEscan)
Experimental: as §1, §2, §3, §4, §5, §6

CSF1R = target: T25, CSF1R (Homo sapiens, UniProt P07333); conditions: 100 nM
T25 construct: purchased Invitrogen
Experimental: as §1, §2, §3, §4, §5, §6

PRKD2 = target: T26, PRKD2 (Homo sapiens, UniProt Q9BZL6); conditions: PRKD2, 100 nM; read-out: Percent Control
T26 construct: purchased DiscoveRx KINOMEscan (TRKA and CSF1R IC50 enzymes from Invitrogen)
Experimental: as §1, §2, §3, §4, §5, §6

PCTK1 = target: T27, PCTK1 (Homo sapiens, UniProt Q00536); conditions: PCTK1, 100 nM; read-out: Percent Control
T27 construct: purchased DiscoveRx KINOMEscan (TRKA and CSF1R IC50 enzymes from Invitrogen)
Experimental: as §1, §2, §3, §4, §5, §6

[1] = target: T28, JAK2(JH1domain-catalytic) (Homo sapiens, UniProt O60674); conditions: 100 nM, read-out: Percent Control
T28 construct: JAK2(JH1domain-catalytic); purchased DiscoveRx KINOMEscan (TRKA and CSF1R IC50 enzymes from Invitrogen)
Experimental: as §1, §2, §3, §4, §5, §6

[2] = target: T29, JAK1(JH2domain-pseudokinase) (Homo sapiens, UniProt P23458); conditions: 100 nM, read-out: Percent Control
T29 construct: JAK1(JH2domain-pseudokinase); purchased DiscoveRx KINOMEscan (TRKA and CSF1R IC50 enzymes from Invitrogen)
Experimental: as §1, §2, §3, §4, §5, §6

ROCK2 = target: T30, ROCK2 (Homo sapiens, UniProt O75116); conditions: ROCK2, 100 nM; read-out: Percent Control
T30 construct: purchased DiscoveRx KINOMEscan (TRKA and CSF1R IC50 enzymes from Invitrogen)
Experimental: as §1, §2, §3, §4, §5, §6

T12 sequence (Q9HBH9 whole entry): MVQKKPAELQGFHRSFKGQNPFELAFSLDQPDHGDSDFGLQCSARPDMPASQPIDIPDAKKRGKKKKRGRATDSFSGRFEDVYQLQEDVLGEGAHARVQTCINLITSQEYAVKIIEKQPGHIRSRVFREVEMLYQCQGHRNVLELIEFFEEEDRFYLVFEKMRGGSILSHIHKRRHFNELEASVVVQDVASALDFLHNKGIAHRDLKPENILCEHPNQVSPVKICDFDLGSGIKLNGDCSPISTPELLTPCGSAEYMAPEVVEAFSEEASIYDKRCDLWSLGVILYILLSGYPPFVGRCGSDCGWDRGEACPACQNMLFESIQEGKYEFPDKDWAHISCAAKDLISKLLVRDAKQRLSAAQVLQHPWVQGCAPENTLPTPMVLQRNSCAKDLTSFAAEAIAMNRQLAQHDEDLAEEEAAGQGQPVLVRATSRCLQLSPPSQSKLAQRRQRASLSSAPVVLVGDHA
T25 sequence (P07333 20-972): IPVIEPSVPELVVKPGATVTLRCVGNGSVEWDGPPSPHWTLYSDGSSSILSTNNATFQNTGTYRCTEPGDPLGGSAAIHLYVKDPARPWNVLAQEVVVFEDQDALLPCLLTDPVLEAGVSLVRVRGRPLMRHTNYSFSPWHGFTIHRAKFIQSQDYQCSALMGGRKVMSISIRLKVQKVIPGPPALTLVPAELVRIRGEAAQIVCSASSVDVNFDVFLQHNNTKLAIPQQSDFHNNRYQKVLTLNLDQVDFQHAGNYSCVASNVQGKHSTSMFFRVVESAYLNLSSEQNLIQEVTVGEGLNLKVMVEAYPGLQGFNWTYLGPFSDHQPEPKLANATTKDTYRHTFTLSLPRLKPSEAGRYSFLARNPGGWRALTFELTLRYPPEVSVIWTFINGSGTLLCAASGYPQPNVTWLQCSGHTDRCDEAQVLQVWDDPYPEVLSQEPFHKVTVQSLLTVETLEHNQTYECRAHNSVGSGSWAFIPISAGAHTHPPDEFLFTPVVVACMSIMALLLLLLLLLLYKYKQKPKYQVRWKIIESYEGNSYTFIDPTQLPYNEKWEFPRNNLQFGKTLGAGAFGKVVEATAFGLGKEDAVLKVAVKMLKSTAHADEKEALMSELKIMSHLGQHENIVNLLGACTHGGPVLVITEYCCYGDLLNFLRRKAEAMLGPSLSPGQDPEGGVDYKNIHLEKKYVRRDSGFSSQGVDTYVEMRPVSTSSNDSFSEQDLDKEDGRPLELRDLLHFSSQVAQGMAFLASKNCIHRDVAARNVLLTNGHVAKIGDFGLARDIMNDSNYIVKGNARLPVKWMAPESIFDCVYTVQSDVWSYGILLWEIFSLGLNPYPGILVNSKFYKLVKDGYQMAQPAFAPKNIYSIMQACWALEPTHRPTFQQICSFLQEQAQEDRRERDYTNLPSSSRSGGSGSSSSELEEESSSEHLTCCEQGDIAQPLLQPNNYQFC
T6 sequence (Q8IWQ3 whole entry): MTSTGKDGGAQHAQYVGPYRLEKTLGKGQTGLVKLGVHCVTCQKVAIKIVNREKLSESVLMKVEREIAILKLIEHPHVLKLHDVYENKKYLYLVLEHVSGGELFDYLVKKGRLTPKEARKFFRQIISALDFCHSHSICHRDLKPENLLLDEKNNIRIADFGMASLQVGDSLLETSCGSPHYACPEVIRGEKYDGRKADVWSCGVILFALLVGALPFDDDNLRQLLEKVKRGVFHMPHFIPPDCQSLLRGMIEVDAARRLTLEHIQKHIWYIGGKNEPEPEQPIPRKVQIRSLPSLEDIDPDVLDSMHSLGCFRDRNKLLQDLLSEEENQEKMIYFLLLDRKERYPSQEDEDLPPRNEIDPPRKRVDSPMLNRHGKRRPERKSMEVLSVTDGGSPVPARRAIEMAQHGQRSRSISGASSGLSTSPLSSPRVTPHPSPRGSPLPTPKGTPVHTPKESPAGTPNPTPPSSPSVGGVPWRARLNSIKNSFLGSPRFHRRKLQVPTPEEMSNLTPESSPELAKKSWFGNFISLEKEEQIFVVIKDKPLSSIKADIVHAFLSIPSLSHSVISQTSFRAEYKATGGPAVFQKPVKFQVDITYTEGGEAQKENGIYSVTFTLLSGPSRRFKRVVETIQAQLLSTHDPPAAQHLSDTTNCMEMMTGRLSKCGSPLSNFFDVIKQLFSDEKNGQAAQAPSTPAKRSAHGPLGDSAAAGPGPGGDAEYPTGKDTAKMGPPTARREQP
T17 sequence (P50750 whole entry): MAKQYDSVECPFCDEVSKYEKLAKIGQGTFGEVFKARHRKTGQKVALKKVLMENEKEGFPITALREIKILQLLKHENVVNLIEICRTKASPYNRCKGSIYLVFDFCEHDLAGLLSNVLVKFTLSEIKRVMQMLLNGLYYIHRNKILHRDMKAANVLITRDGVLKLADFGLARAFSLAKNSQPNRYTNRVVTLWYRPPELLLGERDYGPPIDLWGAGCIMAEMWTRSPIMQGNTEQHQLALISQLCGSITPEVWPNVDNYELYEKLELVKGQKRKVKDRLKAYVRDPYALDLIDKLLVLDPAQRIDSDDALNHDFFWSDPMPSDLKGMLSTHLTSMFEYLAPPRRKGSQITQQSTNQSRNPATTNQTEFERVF
T1 sequence (Q04771 21-509): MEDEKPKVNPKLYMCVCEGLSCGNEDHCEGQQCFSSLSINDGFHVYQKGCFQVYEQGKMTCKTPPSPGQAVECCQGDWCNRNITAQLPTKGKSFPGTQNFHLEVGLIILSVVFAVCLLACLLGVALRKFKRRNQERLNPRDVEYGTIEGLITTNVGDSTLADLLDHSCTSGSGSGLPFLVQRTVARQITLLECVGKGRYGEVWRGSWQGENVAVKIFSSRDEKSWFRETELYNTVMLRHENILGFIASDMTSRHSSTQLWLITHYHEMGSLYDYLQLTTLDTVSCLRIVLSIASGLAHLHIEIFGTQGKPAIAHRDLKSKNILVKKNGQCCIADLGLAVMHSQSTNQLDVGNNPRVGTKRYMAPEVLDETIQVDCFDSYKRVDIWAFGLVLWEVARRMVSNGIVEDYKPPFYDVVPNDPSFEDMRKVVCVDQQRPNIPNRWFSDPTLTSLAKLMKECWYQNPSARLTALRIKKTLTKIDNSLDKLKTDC
T22 sequence (O43683 whole entry): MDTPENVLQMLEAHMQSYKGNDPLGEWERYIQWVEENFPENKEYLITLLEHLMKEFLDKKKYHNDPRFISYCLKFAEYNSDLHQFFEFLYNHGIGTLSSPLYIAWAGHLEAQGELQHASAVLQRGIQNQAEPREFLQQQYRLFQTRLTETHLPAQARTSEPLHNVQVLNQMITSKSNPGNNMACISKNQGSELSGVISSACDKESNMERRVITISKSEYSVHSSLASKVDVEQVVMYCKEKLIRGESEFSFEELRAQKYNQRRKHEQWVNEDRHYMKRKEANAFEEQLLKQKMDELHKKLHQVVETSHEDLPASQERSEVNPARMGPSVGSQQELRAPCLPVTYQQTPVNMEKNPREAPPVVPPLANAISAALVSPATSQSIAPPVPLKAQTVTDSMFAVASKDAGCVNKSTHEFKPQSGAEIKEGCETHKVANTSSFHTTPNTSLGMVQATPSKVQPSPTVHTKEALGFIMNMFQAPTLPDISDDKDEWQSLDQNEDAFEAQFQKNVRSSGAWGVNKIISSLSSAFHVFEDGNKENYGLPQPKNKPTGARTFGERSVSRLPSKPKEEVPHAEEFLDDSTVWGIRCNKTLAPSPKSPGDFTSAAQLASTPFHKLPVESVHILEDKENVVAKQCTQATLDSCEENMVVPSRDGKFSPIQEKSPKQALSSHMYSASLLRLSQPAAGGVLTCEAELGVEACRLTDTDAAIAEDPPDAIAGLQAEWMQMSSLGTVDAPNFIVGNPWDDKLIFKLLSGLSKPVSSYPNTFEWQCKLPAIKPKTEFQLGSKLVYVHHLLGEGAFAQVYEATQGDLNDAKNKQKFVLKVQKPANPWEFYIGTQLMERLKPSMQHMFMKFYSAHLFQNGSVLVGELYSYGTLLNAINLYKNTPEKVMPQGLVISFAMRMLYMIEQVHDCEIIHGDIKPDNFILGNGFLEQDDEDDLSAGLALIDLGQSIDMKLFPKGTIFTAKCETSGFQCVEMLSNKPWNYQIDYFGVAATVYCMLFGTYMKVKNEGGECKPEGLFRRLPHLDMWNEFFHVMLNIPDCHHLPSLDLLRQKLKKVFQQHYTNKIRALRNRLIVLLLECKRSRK
T19 sequence (P51813 whole entry): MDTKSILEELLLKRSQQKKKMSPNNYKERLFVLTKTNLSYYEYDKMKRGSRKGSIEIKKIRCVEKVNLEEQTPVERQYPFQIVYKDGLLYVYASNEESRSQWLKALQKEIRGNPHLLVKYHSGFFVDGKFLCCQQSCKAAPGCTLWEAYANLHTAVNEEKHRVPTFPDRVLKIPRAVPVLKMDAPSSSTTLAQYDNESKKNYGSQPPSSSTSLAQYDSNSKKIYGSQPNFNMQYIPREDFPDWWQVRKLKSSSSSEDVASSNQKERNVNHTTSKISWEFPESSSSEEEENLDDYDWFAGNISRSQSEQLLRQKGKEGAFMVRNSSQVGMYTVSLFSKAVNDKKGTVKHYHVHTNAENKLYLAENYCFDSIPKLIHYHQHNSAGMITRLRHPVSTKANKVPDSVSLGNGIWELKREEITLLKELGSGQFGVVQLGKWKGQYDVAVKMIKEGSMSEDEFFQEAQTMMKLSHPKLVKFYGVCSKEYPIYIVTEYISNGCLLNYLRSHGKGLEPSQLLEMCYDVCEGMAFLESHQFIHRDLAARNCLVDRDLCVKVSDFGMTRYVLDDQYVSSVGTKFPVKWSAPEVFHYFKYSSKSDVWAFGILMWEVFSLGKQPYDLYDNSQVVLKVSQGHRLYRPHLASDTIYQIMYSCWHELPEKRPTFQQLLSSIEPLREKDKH

CC(C)(C)c1cc(NC(=O)Cc2ccc(-n3cnc4cc(-c5ccc(S(C)(=O)=O)cc5)ccc43)cc2)no1 [NPA101.3]
remaining binding at 0.1 µM (ACVR1): 92%
remaining binding at 0.1 µM (YANK2): 98%
remaining binding at 0.1 µM (IRAK4): 100%
remaining binding at 0.1 µM (TLK1): 100%
remaining binding at 0.1 µM (LIMK2): 94%
remaining binding at 0.1 µM (BRSK2): 100%
remaining binding at 0.1 µM (MEK1): 92%
remaining binding at 0.1 µM (BTK): 93%
remaining binding at 0.1 µM (INSR): 100%
remaining binding at 0.1 µM (MTOR): 97%
remaining binding at 0.1 µM (TTK): 66%
binding (% bound) (MKNK2; 100 nM): > 90 % bound
remaining binding at 0.1 µM (MKNK2; MKNK2, 100 nM, read-out: Percent Control): 0.15%
remaining binding at 0.1 µM (DRAK1): 75%
remaining binding at 0.1 µM (TSSK1B): 96%
remaining binding at 0.1 µM (FER): 96%
remaining binding at 0.1 µM (PIM1): 94%
remaining binding at 0.1 µM (CDK9): 100%
remaining binding at 0.1 µM (CHEK2): 79%
remaining binding at 0.1 µM (BMX): 94%
remaining binding at 0.1 µM (AXL): 62%
remaining binding at 0.1 µM (AURKA): 100%
remaining binding at 0.1 µM (BUB1): 100%
remaining binding at 0.1 µM (EGFR): 96%
remaining binding at 0.1 µM (ULK2): 100%
binding (% bound) (CSF1R): > 90 % bound
remaining binding at 0.1 µM (CSF1R; CSF1R, read-out: Percent Control): 0.05%
remaining binding at 0.1 µM (PRKD2): 100%
remaining binding at 0.1 µM (PCTK1): 89%
remaining binding at 0.1 µM [1]: 100%
remaining binding at 0.1 µM [2]: 93%
remaining binding at 0.1 µM (ROCK2): 100%
